Values of other authors in patent US10112962B2, “Boron-based prodrug strategy for increased bioavailability and lower-dosage requirements for drug molecules containing at least one phenol (or aromatic hydroxyl) group” (XAVIER UNIVERSITY OF LOUISIANA, priority 2014, dated 2018).

What was measured:
[1] = literature statement
[2] = literature statement; remark: listed apart in the source

| SMILES | oral bioavailability [1] | water solubility [2] |
| --- | --- | --- |
| C[C@]12CC[C@@H]3c4ccc(O)cc4C[C@@H](CCCCCCCCC[S+]([O-])CCCC(F)(F)C(F)(F)F)[C@H]3[C@@H]1CC[C@@H]2O (stereo partly shown) [Fulvestrant] | poor oral bioavailability |  |
| O=C(Nc1ccc([N+](=O)[O-])cc1Cl)c1cc(Cl)ccc1O [niclosamide, Niclosamide] | low oral bioavailability | poor water solubility |
| O=C(c1ccc(OCCN2CCCCC2)cc1)c1c(-c2ccc(O)cc2)sc2cc(O)ccc12 [raloxifen, Raloxifene] | poor bioavailability |  |
